Test results taken from article PMC5387044, “Analogs of the Frog-skin Antimicrobial Peptide Temporin 1Tb Exhibit a Wider Spectrum of Activity and a Stronger Antibiofilm Potential as Compared to the Parental Peptide” (Frontiers in Chemistry, 2017).
Marks after values point to notes of the source that are not given here. No end group written: not given here.

Assays:
[1] = system: preformed biofilms of S. aureus ATCC 33591; test: Biofilm treatment assay on preformed (24-h old) biofilms, CFU counting, alone and with EDTA; assay type: cell-based, Staphylococcus aureus; settings: concentrations up to 120 μM, CFU counting
Procedure: The activity of TB, TB_L1FK, and TB_KKG6A against preformed (24-h old) biofilms of S. aureus and P. aeruginosa was also investigated. Briefly, biofilms were allowed to form for 24 h in flat-bottom 96-well microplates in the absence of antimicrobial compounds. Established biofilms were then washed three times with PBS in order to remove non-adherent cells and incubated in fresh BPM with different concentrations of the three peptides (from 15 to 120 μM). After 24 h of incubation, the viability of biofilm-associated cells was evaluated by CFU counting. For this purpose, biofilms were washed three times with PBS and bacterial cells were detached from the surface of the wells with a pipette tip, vigorously vortexed and plated in serial dilutions on TSA.
TB_L1FK and TB_KKG6A were combined with EDTA in order to enhance their activity against preformed biofilms of S. aureus and P. aeruginosa. […] Following incubation, the antibiofilm effect was evaluated in terms of number of biofilm-associated viable cells as previously described.
Figure 4 Activity of TB_L1FK and TB_KKG6A, used alone and in combination with EDTA, against preformed (24-h old) biofilms of S. aureus ATCC 33591 (A,B) and P. aeruginosa ATCC 27853 (C,D). The antibiofilm activity of the peptides, EDTA and the peptide-EDTA combinations was evaluated by CFU counting after 24 h of incubation. […]

[2] = system: human red blood cells (RBCs); settings: concentrations up to 96 μM, 1 h, 37°C
Procedure: Hemolytic activity of TB and its analogs was tested against human red blood cells (RBCs) as previously described (Tavanti et al., [2011]). Briefly, peripheral blood obtained from healthy donors was centrifuged (1,000 × g for 10 min, 4°C) and washed three times with PBS (Euroclone, Milan, Italy). A suspension of RBCs (4%, v/v) was mixed with various concentrations of the peptides (from 12 to 96 μM) into a round-bottom polystyrene 96-well microplate (Corning Costar). RBCs suspended in PBS alone were used as negative control (0% hemolysis), while cells lysed with 0.1% Triton X-100 were taken as positive control (100% hemolysis). The microplate was incubated for 1 h at 37°C and then centrifuged at 1,000 × g for 20 min, 4°C. Supernatants were transferred to a new plate and the optical density at 450 nm (OD450) was measured by means of a microplate reader. The hemolytic activity was quantified according to the following formula: hemolysis (%) = [(OD peptide – OD negative control)/(OD positive control – OD negative control)] × 100.
The hemolytic activity was evaluated by the spectrophotometric determination of hemoglobin released from erythrocytes. PBS (0% hemolysis) and Triton X-100 (100% hemolysis) were used as controls. Hemolysis values ≤ 10% (dashed line) are considered to be non-hemolytic (Amin and Dannenfelser, [2006]). […]

[3] = system: P. aeruginosa ATCC 27853; settings: ATCC 27853, 24 h, pH 7.4
[4] = system: K. pneumoniae ATCC BAA-1706; settings: ATCC BAA-1706, 24 h, pH 7.4
[5] = in vitro; settings: human
[6] = system: P. aeruginosa ATCC 27853; assay type: cell-based, Pseudomonas aeruginosa; settings: pH 7.4
[7] = in vitro; settings: human; remark: listed apart in the source
[8] = system: P. aeruginosa ATCC 27853 biofilm formation
[9] = system: S. aureus ATCC 33591; settings: ATCC 33591, 24 h, pH 7.4
[10] = system: S. epidermidis ATCC 35984; settings: ATCC 35984, 24 h, pH 7.4
[11] = system: S. aureus ATCC 33591; assay type: cell-based, Staphylococcus aureus; settings: pH 7.4

LLPIVGNLLKSLL-NH2 [TB, Temporin 1Tb]
Antibiofilm activity on preformed biofilms [1]: did not exert a considerable antibiofilm activity
Hemolytic effect [2]: no hemolytic effect
MBC [3]: 48 µM
MBC [4]: 48 µM
viability [5]: ~90%
Time to bactericidal effect [6]: 15 min
viability [7]: ~90%
Inhibitory activity on forming biofilms [8]: no inhibitory activity
MBC [9]: 12^a μM
MBC [10]: 6 µM
Time to bactericidal effect (reduction of at least 3 Log10 in viable bacteria) [11]: approximately 90 min
